# Source: BindingDB's records for PubMed 34286973 (University of Chinese Academy of Sciences, 2021)
# Molecular target: E3 ubiquitin-protein ligase Mdm2 (Homo sapiens, UniProt Q00987)
# Experiment: Binding affinity to human MDM2 assessed as dissociation constant
# E3 ubiquitin-protein ligase Mdm2, sequence (Q00987 whole entry): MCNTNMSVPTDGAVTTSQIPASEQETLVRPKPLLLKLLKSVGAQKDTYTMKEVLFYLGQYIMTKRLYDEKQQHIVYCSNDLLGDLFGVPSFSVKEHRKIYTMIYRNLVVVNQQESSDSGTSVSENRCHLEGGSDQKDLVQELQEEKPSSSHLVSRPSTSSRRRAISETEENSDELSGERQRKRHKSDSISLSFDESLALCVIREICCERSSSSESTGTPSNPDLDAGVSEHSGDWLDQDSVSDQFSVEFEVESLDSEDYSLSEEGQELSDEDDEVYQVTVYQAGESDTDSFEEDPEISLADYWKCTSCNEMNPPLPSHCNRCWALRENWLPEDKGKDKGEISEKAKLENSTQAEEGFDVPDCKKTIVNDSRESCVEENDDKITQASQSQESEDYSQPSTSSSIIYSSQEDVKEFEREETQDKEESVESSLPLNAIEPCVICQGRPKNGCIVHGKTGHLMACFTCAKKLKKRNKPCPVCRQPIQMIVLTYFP
smiles,measurement,value
O=C(CN(Cc1ccc(Cl)cc1)C(=O)c1cc2ccccc2[nH]1)NC1CCCCC1,Ki,54 µM
